Laboratory results: patent publication US20230357193A1, “COMPOUND CAPABLE OF INHIBITING AND DEGRADING ANDROGEN RECEPTORS, AND PHARMACEUTICAL COMPOSITIONS AND PHARMACEUTICAL USES THEREOF” (Sichuan Haisco Pharmaceutical Co., Ltd., priority 2020, published 2023)
Where two headings read alike, the source gives them in different places.

Tests used:
[1] = test system: Prostate cancer cells VCaP; assay: Experiment on inhibiting VCaP cell proliferation (CellTiter-Glo, with 0.1 nM R1881); format: cell-based; details: Homo sapiens, 168 h, read-out: GI50 for inhibition of VCaP cells
Experimental: Prostate cancer cells VCaP were purchased from ATCC, the cell medium was 1640 + 10% FBS, and the cells were cultured in an incubator at 37° C. under 5% CO2. On day 1, the cells in an exponential phase were collected. With a 1% css-FBS phenol red-free medium, the cell suspension was adjusted to a corresponding concentration, plated into T0 wells at 7500 cells/well and incubated for 3 days. After the incubation was completed, R1881 at a final concentration of 0.1 nM and compounds at different concentrations were added, and the plate was placed in the incubator and incubated for another 7 days. On the day of the addition, T0 plate was detected using a CellTiter-Glo kit and recorded as RLU0. After the incubation was completed, 100 µL of mediums was pipetted from each well. According to operation instructions for a CellTiter-Glo kit (Promega, G7573), 50 µL of CellTiter-Glo reagents, which were already pre-melted and equilibrated to room temperature, were then added to each well, and the mixtures were uniformly mixed for 2 min using a microplate shaker. The plate was placed at room temperature for 10 min, and then […] signal values were measured using a microplate reader (PHERAstar FSX). The results were processed according to formula (1), the inhibition rate of the compound at different concentrations was calculated, and the GI50 value of the compound with an inhibition rate of 50% was calculated using origin9.2 software, wherein RLU compound was the readout of the treated group, and RLUcontrol was the average value of the solvent control group.

[2] = test system: Prostate cancer cells 22RV1; assay: Experiment on inhibiting 22RV1 cell proliferation (CellTiter-Glo); format: cell-based; details: Homo sapiens, 168 h, 22RV1 cells, 7 days incubation, read-out: IC50 for inhibition of 22RV1 cells
Experimental: Prostate cancer cells 22RV1 were purchased from ATCC, the cell medium was RPMI 1640 + 10% FBS, and the cells were cultured in an incubator at 37° C. under 5% CO2. On day 1, the cells in an exponential phase were collected. With a 1% css-FBS phenol red-free medium, the cell suspension was adjusted to a corresponding concentration, plated at 2000 cells/well and incubated overnight. On day 2, compounds at different concentrations were added, and the plate was placed in the incubator and incubated for another 7 days. After the incubation was completed, according to operation instructions for a CellTiter-Glo kit (Promega, G7573), 50 µL of CellTiter-Glo reagents, which were already pre-melted and equilibrated to room temperature, were added to each well, and the mixtures were uniformly mixed for 2 min using a microplate shaker. The plate was placed at room temperature for 10 min, and then […] signal values were measured using a microplate reader (PHERAstar FSX). The results were processed according to formula (2), the inhibition rate of the compound at different concentrations was calculated, and the IC50 value of the compound with an inhibition rate of 50% was calculated using origin9.2 software with DoseResp function, wherein RLUcompound was the readout of the treated group, and RLUcontrol was the average value of the DMSO solvent control group.

[3] = Pharmacokinetic experiment in rats; format: in vivo; details: male SD rats, i.g. 20 mg/kg
Experimental: Objective: in this experiment, a single dose of each test compound was administered to SD rats intravenously and intragastrically, the concentrations of the test compound in plasma of rats were measured, and the pharmacokinetic characteristics and bioavailability of the test compound in rats were evaluated.
Experimental animals: male SD rats, 200-250 g, 6-8 weeks old, 6 rats/compound, purchased from CHENGDU DOSSY EXPERIMENTAL ANIMALS CO., LTD.
Experimental method: on the day of the experiment, six SD rats were randomly grouped according to their body weights. The animals were fasted but with water available for 12 to 14 hours one day before the administration, and were fed 4 h after the administration.
Sampling: before and after the administration, 0.1 mL of blood was taken from the orbit of the rats under isoflurane anesthesia and placed in an EDTAK2 centrifuge tube. Centrifugation was carried out at 5000 rpm at 4° C. for 10 min, and the plasma was collected.
Time points for plasma collection in G1 and G2 groups: 0, 5 min, 15 min, 30 min, 1 h, 2 h, 4 h, 6 h, 8 h, and 24 h.
Before analysis and detection, all samples were stored at -80° C. The samples were analyzed quantitatively by LC-MS/MS.

[4] = VCaP cells, 0.1 nM R1881, 7 days incubation, CellTiter-Glo

Row | SMILES | GI50 [1, 4] [nM] | other results
1 | CC(C)(C(=O)Nc1ccc(C#N)c(C(F)(F)F)c1)n1cc(C2CCN(c3ccc4c(c3)C(=O)N(C3CCC(=O)NC3=O)C4=O)CC2)cn1 (stereo not shown) [Compound 5, N-(4-cyano-3-(trifluoromethyl)phenyl)-2-(4-(1-(2-(2,6-dioxopiperidin-3-yl)-1,3-dioxoisoindolin-5-yl)piperidin-4-yl)-1H-pyrazol-1-yl)-2-methylpropanamide] | 1910 | –
2 | N#Cc1ccc(NC(=O)C2(n3cc(C4CCN(CC5CCN(c6ccc7c(c6)C(=O)N(C6CCC(=O)NC6=O)C7=O)C5)CC4)cn3)CCC2)cc1C(F)(F)F (stereo not shown) [Compound 4] | 1810 | –
3 | N#Cc1ccc(NC(=O)C2(n3cc(C#CC4CN(C5CN(c6ccc7c(c6)C(=O)N(C6CCC(=O)NC6=O)C7=O)C5)C4)cn3)CCC2)cc1C(F)(F)F (stereo not shown) [Compound 6, N-[4-cyano-3-(trifluoromethyl)phenyl]-1-[4-[2-[1-[1-[2-(2,6-dioxo-3-piperidyl)-1,3-dioxo-isoindolin-5-yl]azetidin-3-yl]azetidin-3-yl]ethynyl]pyrazol-1-yl]cyclobutanecarboxamide] | 1690 | –
4 | CC(C)(C(=O)Nc1ccc(C#N)c(C(F)(F)F)c1)n1cc(C#CC2CCN(c3ccc4c(c3)C(=O)N(C3CCC(=O)NC3=O)C4=O)CC2)cn1 (stereo not shown) [Compound 10, N-(4-cyano-3-(trifluoromethyl)phenyl)-2-(4-((1-(2-(2,6-dioxopiperidin-3-yl)-1,3-dioxoisoindolin-5-yl)piperidin-4-yl)ethynyl)-1H-pyrazol-1-yl)-2-methylpropanamide] | 330 | –
5 | CC(C)(C(=O)Nc1ccc(C#N)c(C(F)(F)F)c1)n1cc(C#CC2CN(C3CN(c4ccc5c(c4)C(=O)N(C4CCC(=O)NC4=O)C5=O)C3)C2)cn1 (stereo not shown) [Compound 8, N-(4-cyano-3-(trifluoromethyl)phenyl)-2-(4-((1′-(2-(2,6-dioxopiperidin-3-yl)-1,3-dioxoisoindolin-5-yl)-[1,3′-biazetidin]-3-yl)ethynyl)-1H-pyrazol-1-yl)-2-methylpropanamide] | 3960 | –
6 | CC(C)(C(=O)Nc1ccc(C#N)c(C(F)(F)F)c1)n1cc(C2CCN(CC3CCN(c4ccc5c(c4)C(=O)N(C4CCC(=O)NC4=O)C5=O)C3)CC2)cn1 (stereo not shown) [Compound 2, N-(4-cyano-3-(trifluoromethyl)phenyl)-2-(4-(1-((1-(2-(2,6-dioxopiperidin-3-yl)-1,3-dioxoisoindolin-5-yl)pyrrolidin-3-yl)methyl)piperidin-4-yl)-1H-pyrazol-1-yl)-2-methylpropanamide] | 4790 | –
7 | CC(C)(C(=O)Nc1ccc(C#N)c(C(F)(F)F)c1)n1cc(C2CCN(C3CCC4(CC3)CN(c3ccc5c(c3)C(=O)N(C3CCC(=O)NC3=O)C5=O)C4)CC2)cn1 (stereo not shown) [Compound 3, N-(4-cyano-3-(trifluoromethyl)phenyl)-2-(4-(1-(2-(2-(2,6-dioxopiperidin-3-yl)-1,3-dioxoisoindolin-5-yl)-2-azaspiro[3.5]nonan-7-yl)piperidin-4-yl)-1H-pyrazol-1-yl)-2-methylpropanamide] | 3090 | –
8 | N#Cc1ccc(NC(=O)C2(n3cc(C#CC4CN(c5ccc6c(c5)C(=O)N(C5CCC(=O)NC5=O)C6=O)C4)cn3)CCC2)cc1C(F)(F)F (stereo not shown) [Compound 7, N-[4-cyano-3-(trifluoromethyl)phenyl]-1-[4-[2-[1-[2-(2,6-dioxo-3-piperidyl)-1,3-dioxo-isoindolin-5-yl]azetidin-3-yl]ethynyl]pyrazol-1-yl]cyclobutanecarboxamide] | 470 | –
9 | CC(C)(C(=O)Nc1ccc(C#N)c(C(F)(F)F)c1)n1cc(C#CC2CN(c3ccc4c(c3)C(=O)N(C3CCC(=O)NC3=O)C4=O)C2)cn1 (stereo not shown) [Compound 9, N-(4-cyano-3-(trifluoromethyl)phenyl)-2-(4-((1-(2-(2,6-dioxopiperidin-3-yl)-1,3-dioxoisoindolin-5-yl)azetidin-3-yl)ethynyl)-1H-pyrazol-1-yl)-2-methylpropanamide] | – | GI50 ([1]; VCaP): 180 nM; IC50 [2]: 78 nM; Oral bioavailability [3]: Yes; AUC(0-t) ([3]; rat, po, plasma): 45600 ± 3720 ng·h/mL; half-life ([3]; rat, po, plasma): 24 ± 10 h
